Drawing on ChEMBL document CHEMBL4831536, “Neuroregenerative Potential of Prenyl- and Pyranochalcones: A Structure-Activity Study” (J Nat Prod, 2021), this text covers Activity and Ratio for 10 compounds.

Data set [1] has as its system MEF. Description: Cytotoxicity against NMRI mouse MEF cells assessed as effect on cell proliferation by measuring effect on renilla activity at 10 uM incubated for 3 days by luminescence based analysis. The note with it: 72 h, time 3 day.
The subject of data set [2] is MEF. Description: Neuro-regenerative activity in NMRI mouse MEF cells transfected with human DCX promoter-driven firefly luciferase reporter assessed as induction of neuronal differentiation at 10 uM incubated for 3 days by luciferase reporter gene based luminescence analysis. The data set is classed as functional, cell-based. The note with it: time 3.0 day. In general terms: A reporter such as luciferase makes a cellular process visible.

Data set [3] has as its system MEF. Description: Neuro-regenerative activity in NMRI mouse MEF cells transfected with human DCX promoter-driven firefly luciferase reporter assessed as induction of neuronal differentiation at 10 uM incubated for 3 days by luciferase reporter gene based luminescence analysis relative to control. The format is functional. The following applies: time 3 day.

Activity calls are given as the source filed them. The calls are words filed in the database; no cut-off is given here.

`COc1cc2c(c(O)c1C(=O)/C=C/c1ccc(O)c(O)c1)C=CC(C)(C)O2`: in the data set on MEF [1], the Activity entry is “Non-Toxic”. Also, in the data set with MEF [2], the outcome was Active. `CC1(C)C=Cc2c(cc3c(c2O)C(=O)CC(c2ccc(O)cc2)O3)O1` (stereo not drawn): the result in the data set with MEF [2] was Active. As to `COc1cc(O)c(CC=C(C)C)c(O)c1C(=O)/C=C/c1ccc(O)cc1` [XANTHOHUMOL], the Ratio with MEF [3] amounted to 5.55. The Activity entry with MEF [1] was “Toxic”. In the case of `COc1cc2c(c(O)c1C(=O)/C=C/c1ccc(O)cc1)C=CC(C)(CCC=C(C)C)O2` (stereo not drawn), the result with MEF [2] was inactive. The same measure, in the same setting: for `COc1ccc(/C=C/C(=O)c2c(OC)cc3c(c2O)C=CC(C)(C)O3)cc1` the value was “Active”; for `COc1cc2c(c3c1C(=O)CC(c1ccc(O)cc1)O3)C=CC(C)(C)O2` (stereo not drawn), “Active”. For the compound `COc1cc2c(c(O)c1C(=O)/C=C/c1ccc(O)cc1)C=CC(C)(C)O2` [XANTHOHUMOL C], in the data set with MEF [3], the Ratio is recorded as 1.56. In addition, in the data set on MEF [1], the Activity entry is given as “Non-Toxic”. In the case of `CC1(C)C=Cc2c(cc(O)c3c2OC(c2ccc(O)cc2)CC3=O)O1` (stereo not drawn), the result with MEF [2] was Active.

As to `COc1cc2c(c(O)c1C(=O)/C=C/c1ccc(O)cc1)CCC(C)(C)O2`, in the data set on MEF [2], the outcome was Active. On the same count and under the same terms, for `COc1cc2c(c(O)c1C(=O)/C=C/c1ccc3c(c1)OCO3)C=CC(C)(C)O2` the value was “Active”.
